Source: the supplement of paper PMC7840683
Where a name gives a salt, the structure may show the parent alone.

Tested on: HepaRG
Test: LDH release cytotoxicity, % of total lysis control; higher = more cytotoxic
Conditions: 48 h
Method in brief: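 Eight-point half-log series of test chemicals, the highest at 100 µM, were given in duplicate for 48 h to single-lot HepaRG cells on collagen I-coated 96-well plates in serum-free induction medium with 0.5% DMSO. A Tecan Safire read resorufin fluorescence from CytoTox-ONE as a measure of LDH in 50 µL spent medium, with 0.1% Triton X in total lysis wells. Percent cytotoxicity was normalized to on-plate vehicle and total lysis controls and averaged over the duplicates.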

C=CCc1ccc(OC)c(OC)c1 [Methyleugenol]
Conditions	LDH release cytotoxicity [%]
0.03162 µM	-1.16
0.1 µM	-0.0217
0.3162278 µM	-0.545
1 µM	-0.949
3.16228 µM	-0.679
10 µM	-0.724
31.6228 µM	-0.435
100 µM	0.911

N#CC(Br)(Br)C(N)=O [2,2-Dibromo-3-nitrilopropionamide]
Conditions	LDH release cytotoxicity [%]
0.0314647 µM	-1.52
0.0995 µM	-0.658
0.3146466 µM	-0.437
0.995 µM	-0.589
3.14647 µM	0.314
9.95 µM	0.381
31.4647 µM	-0.137
99.5 µM	1.42

CCN(CC)C(=O)c1cc(S(=O)(=O)Cc2ccccc2)c(N2CCC(c3ccccc3)CC2)cc1N(CC)CCN(C)C [HMR1171 trifluoroacetate (1:1)]
Conditions	LDH release cytotoxicity [%]
0.01202 µM	1.63
0.038 µM	0.671
0.120167 µM	0.671
0.38 µM	-0.413
1.20167 µM	-7.42
3.8 µM	9.34
12.01666 µM	1.9
38 µM	82.5

CCSC(=O)N(CC(C)C)CC(C)C [Butylate]
Conditions	LDH release cytotoxicity [%]
0.03162 µM	-1.39
0.1 µM	-1.51
0.3162278 µM	-0.761
1 µM	-1.26
3.16228 µM	-0.761
10 µM	-0.00901
31.6228 µM	-0.0439
100 µM	-0.00901

CC(C)C(C(=O)OC(C#N)c1cccc(Oc2ccccc2)c1)c1ccc(Cl)cc1 (configuration not stated) [Esfenvalerate]
Conditions	LDH release cytotoxicity [%]
0.03162 µM	-0.0612
0.1 µM	-1.61
0.3162278 µM	-0.46
1 µM	-0.419
3.16228 µM	-1.05
10 µM	0.166
31.6228 µM	-0.322
100 µM	-0.488

O=C(Nc1ccc([N+](=O)[O-])cc1Cl)c1cc(Cl)ccc1O [5-Chloro-N-(2-chloro-4-nitrophenyl)-2-hydroxybenzamide]
Conditions	LDH release cytotoxicity [%]
0.03162 µM	1.65
0.1 µM	-0.562
0.3162278 µM	-0.79
1 µM	-0.00174
3.16228 µM	0.224
10 µM	1.07
31.6228 µM	1.7
100 µM	4.52

CCCCCCCC(=O)OC [Methyl octanoate]
Conditions	LDH release cytotoxicity [%]
0.03162 µM	-0.862
0.1 µM	-0.372
0.3162278 µM	-1.13
1 µM	-1.52
3.16228 µM	-0.786
10 µM	-1.1
31.6228 µM	-1.29
100 µM	0.214

CC(C)NC(=O)N1CC(=O)N(c2cc(Cl)cc(Cl)c2)C1=O [Iprodione]
Conditions	LDH release cytotoxicity [%]
0.03162 µM	-0.45
0.1 µM	-1.34
0.3162278 µM	-0.949
1 µM	-1.27
3.16228 µM	-1.29
10 µM	-0.662
31.6228 µM	1.78
100 µM	4.73

c1ccc(NNc2ccccc2)cc1 [1,2-Diphenylhydrazine]
Conditions	LDH release cytotoxicity [%]
0.03162 µM	-1.61
0.1 µM	-1.5
0.3162278 µM	-1.76
1 µM	-2.09
3.16228 µM	-1.82
10 µM	-1.49
31.6228 µM	-1.72
100 µM	-0.591

OC12N=C(c3ccccc3)SC1Cc1cc(Cl)ccc12 (configuration not stated) [HMR1426]
Conditions	LDH release cytotoxicity [%]
0.03162 µM	0.113
0.1 µM	-0.325
0.3162278 µM	2.01
1 µM	1.42
3.16228 µM	3.44
10 µM	4.43
31.6228 µM	3.89
100 µM	8.06

CNC(=O)ON=CC(C)(C)SC [Aldicarb]
Conditions	LDH release cytotoxicity [%]
0.03162 µM	-1.61
0.1 µM	-1.37
0.3162278 µM	-2.06
1 µM	-1.68
3.16228 µM	-1.686
10 µM	-0.703
31.6228 µM	-1.04
100 µM	-0.341

OC(c1ccc(Cl)cc1)(c1cncnc1)c1ccccc1Cl (configuration not stated) [Fenarimol]
Conditions	LDH release cytotoxicity [%]
0.031623 µM	-1.68
0.1 µM	-0.827
0.316228 µM	-0.805
1 µM	-2.32
3.16228 µM	-0.581
10 µM	0.969
31.6228 µM	2.21
100 µM	15.4

CCCCCCCCCCCCO [1-Dodecanol]
Conditions	LDH release cytotoxicity [%]
0.031623 µM	-3.98
0.1 µM	-0.16
0.316228 µM	-2.69
1 µM	-2.62
3.16228 µM	-2.27
10 µM	-0.892
31.6228 µM	-1.67
100 µM	-0.399

Cc1cccc(C)c1O [2,6-Dimethylphenol]
Conditions	LDH release cytotoxicity [%]
0.03162 µM	-1.24
0.1 µM	-0.897
0.3162278 µM	-1.931
1 µM	-1.91
3.16228 µM	-1.66
10 µM	-1.73
31.6228 µM	-0.524
100 µM	0.122

COc1ccc(-n2nc(C(F)F)cc2-c2ccc(S(C)=O)cc2)cc1 (configuration not stated) [Difpas-pyrazole]
Conditions	LDH release cytotoxicity [%]
0.03162 µM	-0.159
0.1 µM	-0.696
0.3162278 µM	-0.216
1 µM	-0.962
3.16228 µM	0.006
10 µM	0.216
31.6228 µM	0.847
100 µM	78.66

CN(C)C1C(=O)C(C(N)=O)C(=O)C2(O)C(=O)C3C(=O)c4c(O)cccc4C(C)(O)C3C(O)C12 (configuration not stated) [Oxytetracycline dihydrate]
Conditions	LDH release cytotoxicity [%]
0.03162 µM	-2.54
0.1 µM	-1.62
0.3162278 µM	-1.71
1 µM	-1.95
3.16228 µM	-1.59
10 µM	-2.1
31.6228 µM	-3.27
100 µM	-4

CC(COCC(C)OC(=O)c1ccccc1)OC(=O)c1ccccc1 (configuration not stated) [Di(propylene glycol) dibenzoate]
Conditions	LDH release cytotoxicity [%]
0.03162 µM	-0.851
0.1 µM	-1.49
0.3162278 µM	-1.08
1 µM	-1.01
3.16228 µM	-1.58
10 µM	-1.58
31.6228 µM	-1.03
100 µM	0.42

CN(C)c1ccc(C(=C2C=CC(=[N+](C)C)C=C2)c2ccc(N(C)C)cc2)cc1 [Gentian Violet]
Conditions	LDH release cytotoxicity [%]
0.03162 µM	-1.62
0.1 µM	-2.46
0.3162278 µM	-1.86
1 µM	-1.96
3.16228 µM	6.76
10 µM	29.8
31.6228 µM	51.8
100 µM	54.6

Cc1ccccc1[N+](=O)[O-] [2-Nitrotoluene]
Conditions	LDH release cytotoxicity [%]
0.0324133 µM	-0.207
0.1025 µM	-0.999
0.324134 µM	-0.895
1.025 µM	-1.29
3.24133 µM	-0.412
10.25 µM	0.00334
32.4133 µM	0.414
102.5 µM	1.14
